Test results: patent publication US10519152B2, “Compounds and their use in treating cancer” (AstraZeneca AB, priority 2017, dated 2019)

Key:
[1] = biological target: T1, Estrogen Receptor (ERα) in MCF-7 human ductal carcinoma breast cell line (Homo sapiens, UniProt P03372); assay: MCF-7 ER degradation assay (cell based immuno-fluorescence); settings: MCF-7 cells; for ER degradation ≥ 90% at 0.3 μM: ER degradation by fulvestrant at 0.3 μM is defined as 100%; for DC50: 18-22 hours incubation, 50% reduction of ERα expression, single experiment or average of two or more, read-out: MCF-7 ER degradation IC50
T1 construct: endogenous in cells; host or cells: MCF-7
T1 sequence (P03372 1-595): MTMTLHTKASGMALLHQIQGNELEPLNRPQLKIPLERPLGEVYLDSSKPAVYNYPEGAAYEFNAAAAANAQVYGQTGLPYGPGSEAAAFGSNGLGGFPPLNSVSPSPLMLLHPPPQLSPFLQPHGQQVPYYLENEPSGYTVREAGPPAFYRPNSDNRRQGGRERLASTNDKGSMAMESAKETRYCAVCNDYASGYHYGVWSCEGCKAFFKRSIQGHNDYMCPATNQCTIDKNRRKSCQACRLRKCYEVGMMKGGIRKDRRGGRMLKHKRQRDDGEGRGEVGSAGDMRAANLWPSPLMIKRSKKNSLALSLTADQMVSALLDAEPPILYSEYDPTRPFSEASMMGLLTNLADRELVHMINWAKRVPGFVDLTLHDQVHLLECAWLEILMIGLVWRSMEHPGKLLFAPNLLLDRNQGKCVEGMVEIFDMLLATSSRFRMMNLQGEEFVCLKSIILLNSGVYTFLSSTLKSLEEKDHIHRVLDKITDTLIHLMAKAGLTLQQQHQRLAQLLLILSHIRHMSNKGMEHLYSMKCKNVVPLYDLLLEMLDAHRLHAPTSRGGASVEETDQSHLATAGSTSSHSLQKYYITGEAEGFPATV
Summary of the method: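 MCF-7 human ductal carcinoma breast cells were seeded at 3.75×10^4 cells per mL (40 μL per well) in 384 well plates with phenol red free DMEM containing 2 mM L-Glutamine and 5% (v/v) Charcoal/Dextran treated foetal calf serum. After overnight culture, compounds were acoustically dispensed, incubated 18-22 hours, then cells were formaldehyde-fixed and immunostained for ERα.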

[2] = biological target: T2, recombinant human Estrogen Receptor alpha ligand binding domain, residues 307-554 (ER alpha-LBD (GST)) (Homo sapiens, UniProt P03372); assay: ERα binding assay (LanthaScreen TR-FRET competition); settings: TR-FRET competition with Fluormone ES2 tracer, 4 hours at room temperature; single experiment or average of two or more
T2 construct: made in house
T2 sequence (P03372 307-554): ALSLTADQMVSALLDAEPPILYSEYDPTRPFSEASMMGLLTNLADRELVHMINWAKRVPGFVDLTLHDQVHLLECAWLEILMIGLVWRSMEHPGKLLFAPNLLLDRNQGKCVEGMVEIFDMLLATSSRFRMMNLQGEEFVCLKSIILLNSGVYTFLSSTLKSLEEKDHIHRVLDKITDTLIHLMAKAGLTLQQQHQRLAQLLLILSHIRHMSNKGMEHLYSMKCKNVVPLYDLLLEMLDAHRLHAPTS
Protocol: The ability of compounds to bind to isolated Estrogen Receptor Alpha Ligand binding domain (ER alpha-LBD (GST)) was assessed in competition assays using a LanthaScreen™ Time-Resolved Fluorescence Resonance Energy Transfer (TR-FRET) detection end-point. For the LanthaScreen TR-FRET endpoint, a suitable fluorophore (Fluormone ES2, ThermoFisher, Product code P2645) and recombinant human Estrogen Receptor alpha ligand binding domain, residues 307-554 (expressed and purified in-house) were used to measure compound binding. The assay principle is that ER alpha-LBD (GST) is added to a fluorescent ligand to form a receptor/fluorophore complex. A terbium-labelled anti-GST antibody (Product code PV3551) is used to indirectly label the receptor by binding to its GST tag, and competitive binding is detected by a test compound's ability to displace the fluorescent ligand, resulting in a loss of TR-FRET signal between the Tb-anti-GST antibody and the tracer. The assay was performed as follows with all reagent additions carried out using the Beckman Coulter BioRAPTR FRD microfluidic workstation: • 1. Acoustic dispense 120 nL of the test compound into a black low volume 384 well assay plates. • 2. Prepare 1×ER alpha-LBD/Tb-antiGST Ab in ES2 screening buffer and incubate for 15 minutes. • 3. Dispense 6 μL of the […] reagent into each well of the assay plate followed by 6 μL of Fluorophore reagent into each well of the assay plate • 4. Cover the assay plate to protect the reagents from light and evaporation, and incubate at room temperature for 4 hours. • 5. Excite at 337 nm and measure the fluorescent emission signal of each well at 490 nm and 520 nm using the BMG PheraSTAR.
Compounds were dosed directly from a compound source microplate containing serially diluted compound (4 wells containing 10 mM, […] and 10 nM final compound respectively) to an assay microplate using the Labcyte Echo 550. The Echo 550 is a liquid handler that uses acoustic technology to perform direct microplate-to-microplate transfers of DMSO compound solutions and the system can be programmed to transfer multiple small nL volumes of compound from the different source plate wells to give the desired serial dilution of compound in the assay which is then back-filled to normalise the DMSO concentration across the dilution range.
In total 120 nL of compound plus DMSO were added to each well and compounds were tested in a 12-point concentration response format over a final compound concentration range of 10, 2.917, 1.042, 0.2083, 0.1, 0.0292, 0.0104, 0.002083, 0.001, 0.0002917, 0.0001042, and 0.00001 μM respectively. TR-FRET dose response data obtained with each compound was exported into a suitable software package (such as Origin or Genedata) to perform curve fitting analysis. Competitive ER alpha binding was expressed as an IC50 value. This was determined by calculation of the concentration of compound that was required to give a 50% reduction in tracer compound binding to ER alpha-LBD.

Compound	ER degradation ≥ 90% at 0.3 μM [1]	IC50 [2]	DC50 [1]
Cc1ncsc1-c1ccc(CNC(=O)[C@@H]2C[C@@H](O)CN2C(=O)[C@@H](NC(=O)COCCOCCOCCOc2cc(F)c([C@@H]3c4[nH]c5ccccc5c4C[C@@H](C)N3CC(C)(C)F)c(F)c2)C(C)(C)C)cc1 [Example 38, (2S,4R)-1-((S)-2-(tert-Butyl)-14-(3,5-difluoro-4-((1R,3R)-2-(2-fluoro-2-methylpropyl)-3-methyl-2,3,4,9-tetrahydro-1H-pyrido[3,4-b]indol-1-yl)phenoxy)-4-oxo-6,9,12-trioxa-3-azatetradecanoyl)-4-hydroxy-N-(4-(4-methylthiazol-5-yl)benzyl)pyrrolidine-2-carboxamide]	••	0.7 nM	
Cc1ncsc1-c1ccc(CNC(=O)[C@@H]2C[C@@H](O)CN2C(=O)[C@@H](NC(=O)COCCOCCOc2cc(F)c([C@@H]3c4[nH]c5ccccc5c4C[C@@H](C)N3CC(C)(C)F)c(F)c2)C(C)(C)C)cc1 [Example 39, (2S,4R)-1-((S)-2-(2-(2-(2-(3,5-difluoro-4-((R,3R)-2-(2-fluoro-2-methylpropyl)-3-methyl-2,3,4,9-tetrahydro-1H-pyrido[3,4-b]indol-1-yl)phenoxy)ethoxy)ethoxy)acetamido)-3,3-dimethylbutanoyl)-4-hydroxy-N-(4-(4-methylthiazol-5-yl)benzyl)pyrrolidine-2-carboxamide]	•	0.7 nM	
Cc1ncsc1-c1ccc(CNC(=O)[C@@H]2C[C@@H](O)CN2C(=O)[C@@H](NC(=O)COCCCOc2cc(F)c([C@@H]3c4[nH]c5ccccc5c4C[C@@H](C)N3CC(C)(C)F)c(F)c2)C(C)(C)C)cc1 [Example 41, (2S,4R)-1-((S)-2-(2-(3-(3,5-difluoro-4-((1R,3R)-2-(2-fluoro-2-methylpropyl)-3-methyl-2,3,4,9-tetrahydro-1H-pyrido[3,4-b]indol-1-yl)phenoxy)propoxy)acetamido)-3,3-dimethylbutanoyl)-4-hydroxy-N-(4-(4-methylthiazol-5-yl)benzyl)pyrrolidine-2-carboxamide]		0.7 nM	1.7 nM
Cc1ncsc1-c1ccc(CNC(=O)[C@@H]2C[C@@H](O)CN2C(=O)[C@@H](NC(=O)CN2CC3(CCN(CCOc4cc(F)c([C@@H]5c6[nH]c7ccccc7c6C[C@@H](C)N5CC(C)(C)F)c(F)c4)CC3)C2)C(C)(C)C)cc1 [Example 42, (2S,4R)-1-((S)-2-(2-(7-(2-(3,5-difluoro-4-((1R,3R)-2-(2-fluoro-2-methylpropyl)-3-methyl-2,3,4,9-tetrahydro-1H-pyrido[3,4-b]indol-1-yl)phenoxy)ethyl)-2,7-diazaspiro[3.5]nonan-2-yl)acetamido)-3,3-dimethylbutanoyl)-4-hydroxy-N-(4-(4-methylthiazol-5-yl)benzyl)pyrrolidine-2-carboxamide]		1.3 nM	1.9 nM
Cc1ncsc1-c1ccc(CNC(=O)[C@@H]2C[C@@H](O)CN2C(=O)[C@@H](NC(=O)CN2CCC3(CCN(CCOc4cc(F)c([C@@H]5c6[nH]c7ccccc7c6C[C@@H](C)N5CC(C)(C)F)c(F)c4)CC3)CC2)C(C)(C)C)cc1 [Example 43, (2S,4R)-1-((S)-2-(2-(9-(2-(3,5-difluoro-4-((R,3R)-2-(2-fluoro-2-methylpropyl)-3-methyl-2,3,4,9-tetrahydro-1H-pyrido[3,4-b]indol-1-yl)phenoxy)ethyl)-3,9-diazaspiro[5.5]undecan-3-yl)acetamido)-3,3-dimethylbutanoyl)-4-hydroxy-N-(4-(4-methylthiazol-5-yl)benzyl)pyrrolidine-2-carboxamide]		2.3 nM	4.8 nM
Cc1ncsc1-c1ccc(CNC(=O)[C@@H]2C[C@@H](O)CN2C(=O)[C@@H](NC(=O)CN2CCC3(CC2)CCN(C(=O)COc2cc(F)c([C@@H]4c5[nH]c6ccccc6c5C[C@@H](C)N4CC(C)(C)F)c(F)c2)CC3)C(C)(C)C)cc1 [Example 44, (2S,4R)-1-((S)-2-(2-(9-(2-(3,5-difluoro-4-((R,3R)-2-(2-fluoro-2-methylpropyl)-3-methyl-2,3,4,9-tetrahydro-1H-pyrido[3,4-b]indol-1-yl)phenoxy)acetyl)-3,9-diazaspiro[5.5]undecan-3-yl)acetamido)-3,3-dimethylbutanoyl)-4-hydroxy-N-(4-(4-methylthiazol-5-yl)benzyl)pyrrolidine-2-carboxamide]		1.3 nM	1.8 nM
Cc1ncsc1-c1ccc(CNC(=O)[C@@H]2C[C@@H](O)CN2C(=O)[C@@H](NC(=O)COCCCCCN2CC(Oc3cc(F)c([C@@H]4c5[nH]c6ccccc6c5C[C@@H](C)N4CC(C)(C)F)c(F)c3)C2)C(C)(C)C)cc1 [Example 46, (2S,4R)-1-((S)-2-(2-((5-(3-(3,5-difluoro-4-((1R,3R)-2-(2-fluoro-2-methylpropyl)-3-methyl-2,3,4,9-tetrahydro-1H-pyrido[3,4-b]indol-1-yl)phenoxy)azetidin-1-yl)pentyl)oxy)acetamido)-3,3-dimethylbutanoyl)-4-hydroxy-N-(4-(4-methylthiazol-5-yl)benzyl)pyrrolidine-2-carboxamide]		0.8 nM	2 nM
Cc1ncsc1-c1ccc(CNC(=O)[C@@H]2C[C@@H](O)CN2C(=O)[C@@H](NC(=O)COCC#CC#CCOc2cc(F)c([C@@H]3c4[nH]c5ccccc5c4C[C@@H](C)N3CC(C)(C)F)c(F)c2)C(C)(C)C)cc1 [Example 50, (2S,4R)-1-((S)-2-(2-((6-(3,5-difluoro-4-((1R,3R)-2-(2-fluoro-2-methylpropyl)-3-methyl-2,3,4,9-tetrahydro-1H-pyrido[3,4-b]indol-1-yl)phenoxy)hexa-2,4-diyn-1-yl)oxy)acetamido)-3,3-dimethylbutanoyl)-4-hydroxy-N-(4-(4-methylthiazol-5-yl)benzyl)pyrrolidine-2-carboxamide]		1.2 nM	6.6 nM
CC(=O)O[C@@H]1C[C@@H](C(=O)NCc2ccc(-c3scnc3C)cc2)N(C(=O)[C@@H](NC(=O)COCCCCCCOc2cc(F)c([C@@H]3c4[nH]c5ccccc5c4C[C@@H](C)N3CC(C)(C)F)c(F)c2)C(C)(C)C)C1 [Example 52, (3R,5S)-1-((S)-2-(2-((6-(3,5-difluoro-4-((1R,3R)-2-(2-fluoro-2-methylpropyl)-3-methyl-2,3,4,9-tetrahydro-1H-pyrido[3,4-b]indol-1-yl)phenoxy)hexyl)oxy)acetamido)-3,3-dimethylbutanoyl)-5-((4-(4-methylthiazol-5-yl)benzyl)carbamoyl)pyrrolidin-3-yl acetate]		1.1 nM	2.1 nM
